One experiment concerns the target KAT2A (Homo sapiens, UniProt Q92830). Nature of the experiment: KAT2A degradation, Western Blot (Jess), NCI-H1048 cells. The experiment is classed as cell-based. The arrangement: degrader, Western blot (Jess). Particulars: NCI-H1048 cells, KAT2A, 24 h, Western Blot, vs DMSO; read-out: KAT2A NCI-H1048 DC50. Put shortly:
(§1)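 NCI-H1048 cells grown in HITES medium with 5% FBS were treated with compounds for 24 h at 37° C. Lysates were run by capillary Western (Jess) with KAT2A or KAT2B antibodies and chemiluminescent detection. DC50 derived from percent protein reduction versus DMSO control.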
(In general: Immunoblotting shows a protein as a band on a membrane.)

Another experiment has as its target KAT2B (Homo sapiens, UniProt Q92831). Nature of the experiment: KAT2B degradation, Western Blot (Jess), NCI-H1048 cells. Further details: degrader, Western blot (Jess). Type of experiment: cell-based. Particulars: NCI-H1048 cells, KAT2B, 24 h, Western Blot, vs DMSO; read-out: KAT2B NCI-H1048 DC50. Put shortly:
as §1

The DC50 is the concentration giving 50% degradation.

Molecules are shown by their SMILES.

Chain of KAT2A (Q92830 whole entry): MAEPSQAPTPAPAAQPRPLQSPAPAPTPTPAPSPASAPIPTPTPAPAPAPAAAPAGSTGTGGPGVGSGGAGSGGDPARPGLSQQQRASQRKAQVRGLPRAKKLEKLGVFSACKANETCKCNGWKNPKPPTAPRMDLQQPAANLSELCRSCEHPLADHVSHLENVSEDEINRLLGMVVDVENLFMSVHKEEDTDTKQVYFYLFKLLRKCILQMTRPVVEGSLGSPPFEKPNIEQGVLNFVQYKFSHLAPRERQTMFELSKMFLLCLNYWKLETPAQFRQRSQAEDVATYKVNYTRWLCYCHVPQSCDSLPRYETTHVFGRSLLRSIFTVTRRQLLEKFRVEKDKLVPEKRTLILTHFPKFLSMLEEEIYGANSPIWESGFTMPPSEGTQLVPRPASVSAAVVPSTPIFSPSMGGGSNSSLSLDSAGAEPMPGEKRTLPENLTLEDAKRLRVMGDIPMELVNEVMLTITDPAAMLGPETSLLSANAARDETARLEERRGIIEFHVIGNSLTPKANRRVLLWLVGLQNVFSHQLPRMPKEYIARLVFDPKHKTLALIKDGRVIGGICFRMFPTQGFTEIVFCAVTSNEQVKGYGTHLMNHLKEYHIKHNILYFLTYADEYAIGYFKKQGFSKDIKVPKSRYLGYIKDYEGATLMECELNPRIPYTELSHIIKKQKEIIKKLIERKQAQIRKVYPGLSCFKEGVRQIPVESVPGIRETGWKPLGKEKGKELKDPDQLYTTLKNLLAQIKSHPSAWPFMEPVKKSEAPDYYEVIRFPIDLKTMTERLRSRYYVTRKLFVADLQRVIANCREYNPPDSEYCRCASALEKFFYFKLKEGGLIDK
Chain of KAT2B (Q92831 whole entry): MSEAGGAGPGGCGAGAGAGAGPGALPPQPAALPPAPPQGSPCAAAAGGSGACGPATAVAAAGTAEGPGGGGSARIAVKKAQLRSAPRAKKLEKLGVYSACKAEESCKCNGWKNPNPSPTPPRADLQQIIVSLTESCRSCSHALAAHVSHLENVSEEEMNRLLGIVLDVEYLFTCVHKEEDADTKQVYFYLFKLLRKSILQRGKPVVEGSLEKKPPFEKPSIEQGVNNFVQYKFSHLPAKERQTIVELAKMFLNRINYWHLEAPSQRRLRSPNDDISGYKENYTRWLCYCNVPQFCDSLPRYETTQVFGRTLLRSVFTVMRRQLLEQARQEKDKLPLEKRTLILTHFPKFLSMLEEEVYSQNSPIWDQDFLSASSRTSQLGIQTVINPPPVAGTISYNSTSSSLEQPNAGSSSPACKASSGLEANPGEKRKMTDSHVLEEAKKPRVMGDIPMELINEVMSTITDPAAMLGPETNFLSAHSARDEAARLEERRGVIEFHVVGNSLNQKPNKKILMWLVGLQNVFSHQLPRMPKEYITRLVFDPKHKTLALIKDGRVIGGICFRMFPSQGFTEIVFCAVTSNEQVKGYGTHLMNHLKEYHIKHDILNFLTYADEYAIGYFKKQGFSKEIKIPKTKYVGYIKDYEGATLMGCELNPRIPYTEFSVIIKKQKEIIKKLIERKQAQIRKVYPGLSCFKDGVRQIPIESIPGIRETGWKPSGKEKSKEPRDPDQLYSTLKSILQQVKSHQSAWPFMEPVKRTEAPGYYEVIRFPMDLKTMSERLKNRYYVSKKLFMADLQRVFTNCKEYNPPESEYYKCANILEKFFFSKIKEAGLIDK

As for `CN1C[C@H](Nc2cnn(C)c(=O)c2Cl)C[C@H](c2ccc(C(=O)N3CCC4(CC3)CCN(c3ccc5c(N6CCC(=O)NC6=O)nccc5c3)CC4)cc2)C1` [Compound 376], the DC50 at KAT2A and at KAT2B was more than 30 nM each time.
Turning to `CN1C[C@H](Nc2cnn(C)c(=O)c2Br)C[C@H](c2ccc(C(=O)N3CCC(c4ccc5c(C6CCC(=O)NC6=O)nccc5c4)CC3)cc2)C1` (stereo partly shown) [Compound 377], the DC50 is less than 1 nM on KAT2A and more than 30 nM at KAT2B.
As for `Cc1c(N[C@@H]2C[C@H](c3ccc(C(=O)N4CCC(c5ccc6c(C7CCC(=O)NC7=O)cncc6c5)CC4)cc3)CN(C)C2)cnn(C)c1=O` (stereo partly shown) [Compound 378], the DC50 is 1 to 30 nM on KAT2A and more than 30 nM on KAT2B.
`CN1C[C@H](Nc2cnn(C)c(=O)c2Cl)C[C@H](c2ccc(C(=O)N3CCC(c4ccc5c(C6CCC(=O)NC6=O)nccc5c4)CC3)cc2)C1` (stereo partly shown) [Compound 379]: the 50% degradation concentration (DC50) is less than 1 nM on KAT2A and more than 30 nM at KAT2B.
Consider `CN1C[C@H](Nc2cnn(C)c(=O)c2Br)C[C@H](c2ccc(CN3CCN(c4ccc5c(C6CCC(=O)NC6=O)cncc5c4)CC3)cc2)C1` (stereo partly shown) [Compound 380], for which the DC50 at KAT2A and at KAT2B was less than 1 nM each time.
Take `CN1C[C@H](Nc2cnn(C)c(=O)c2Cl)C[C@H](c2ccc(CN3CCN(c4ccc5c(C6CCC(=O)NC6=O)cncc5c4)CC3)cc2)C1` (stereo partly shown) [Compound 381]: the DC50 on KAT2A was 1 to 30 nM; on KAT2B, less than 1 nM.
For `CN1C[C@H](Nc2cnn(C)c(=O)c2Br)C[C@H](c2ccc(CN3CCN(c4ccc5c(C6CCC(=O)NC6=O)nccc5c4)CC3)cc2)C1` (stereo partly shown) [Compound 382] the same measures were less than 1 nM and less than 1 nM.
Take `CN1C[C@H](Nc2cnn(C)c(=O)c2Cl)C[C@H](c2ccc(CN3CCN(c4ccc5c(C6CCC(=O)NC6=O)nccc5c4)CC3)cc2)C1` (stereo partly shown) [Compound 383]: the 50% degradation concentration (DC50) at KAT2A is less than 1 nM; at KAT2B, 1 to 30 nM.
With `CN1C[C@H](Nc2cnn(C)c(=O)c2Br)C[C@H](c2ccc(C(=O)N3CCN(c4ccc5nc(C6CCC(=O)NC6=O)ccc5c4)CC3)cc2)C1` (stereo partly shown) [Compound 384], the DC50 on KAT2A and on KAT2B was less than 1 nM each time.
Turning to `CN1C[C@H](Nc2cnn(C)c(=O)c2Br)C[C@H](c2ccc(CN3CCN(c4ccc5nc(C6CCC(=O)NC6=O)ccc5c4)CC3)cc2)C1` (stereo partly shown) [Compound 385], the DC50 at KAT2A and on KAT2B was 1 to 30 nM in each case.
Consider `CN1C[C@H](Nc2cnn(C)c(=O)c2Br)C[C@H](c2ccc(CN3CCC(c4cccc(C5CCC(=O)NC5=O)c4)C(F)(F)C3)cc2)C1` (stereo partly shown) [Compound 386], for which the half-maximal degradation concentration (DC50) at KAT2A was 1 to 30 nM; on KAT2B it was more than 30 nM.
As to `Cc1c(N[C@@H]2C[C@H](c3ccc(CN4CCC(c5cccc(C6CCC(=O)NC6=O)c5)C(F)(F)C4)cc3)CN(C)C2)cnn(C)c1=O` (stereo partly shown) [Compound 387], the DC50 at KAT2A is less than 1 nM; at KAT2B it was more than 30 nM.
Consider `CN1C[C@H](Nc2cnn(C)c(=O)c2Br)C[C@H](c2ccc(CN3CCC(c4ccc5c(C6CCC(=O)NC6=O)cncc5c4)C(F)(F)C3)cc2)C1` (stereo partly shown) [Compound 388], for which the DC50 at KAT2A and at KAT2B was less than 1 nM throughout.
Turning to `CN1C[C@H](Nc2cnn(C)c(=O)c2Cl)C[C@H](c2ccc(CN3CCC(c4ccc5c(C6CCC(=O)NC6=O)cncc5c4)C(F)(F)C3)cc2)C1` (stereo partly shown) [Compound 389], the DC50 at KAT2A and at KAT2B was less than 1 nM each time.
In the case of `CN1C[C@H](Nc2cnn(C)c(=O)c2Cl)C[C@H](c2ccc(CN3CCC(c4cccc(C5CCC(=O)NC5=O)c4)C(F)(F)C3)cc2)C1` (stereo partly shown) [Compound 390], the DC50 on KAT2A was 1 to 30 nM; on KAT2B it was more than 30 nM.
On to `CN1C[C@H](Nc2cnn(C)c(=O)c2Br)C[C@H](c2ccc(CN3CCC(c4ccc5c(c4)C(=O)N(C4CCC(=O)NC4=O)C5=O)C(F)(F)C3)cc2)C1` (stereo partly shown) [Compound 391], for which the DC50 on KAT2A is more than 30 nM; at KAT2B it was less than 1 nM.
As to `Cc1cc(N2CCC3(CCN(C(=O)c4ccc([C@H]5C[C@@H](Nc6cnn(C)c(=O)c6Br)CN(C)C5)cc4)CC3)CC2)ccc1N1CCC(=O)NC1=O` [Compound 395], the DC50 at KAT2A and at KAT2B was less than 1 nM in each case.
For `Cc1cc(N2CCC3(CCN(C(=O)c4ccc([C@H]5C[C@@H](Nc6cnn(C)c(=O)c6Cl)CN(C)C5)cc4)CC3)CC2)ccc1N1CCC(=O)NC1=O` [Compound 396], the DC50 at KAT2A and at KAT2B was less than 1 nM throughout.
Consider `CN1C[C@H](Nc2cnn(C)c(=O)c2Br)C[C@H](c2ccc(C(=O)N3CCC4(CC3)CCN(c3ccc(N5CCC(=O)NC5=O)c(F)c3)CC4)cc2)C1` [Compound 397], for which the DC50 at KAT2A and on KAT2B was less than 1 nM in each case.
As to `CN1C[C@H](Nc2cnn(C)c(=O)c2Cl)C[C@H](c2ccc(C(=O)N3CCC4(CC3)CCN(c3ccc(N5CCC(=O)NC5=O)c(F)c3)CC4)cc2)C1` [Compound 398], the DC50 at KAT2A and on KAT2B was less than 1 nM in each case.
In the case of `Cc1cc(N2CCC3(CCN(C(=O)c4ccc([C@H]5C[C@@H](Nc6cnn(C)c(=O)c6Cl)CN(C)C5)cc4)CC3)CC2)cc(C)c1N1CCC(=O)NC1=O` [Compound 399], the DC50 on KAT2A and on KAT2B was more than 30 nM each time.
Consider `CN1C[C@H](Nc2cnn(C)c(=O)c2Cl)C[C@H](c2ccc(N3CCC4(CC3)CCN(c3cccc(CN5CCC(=O)NC5=O)c3)CC4)cc2)C1` [Compound 401], for which the DC50 at KAT2A was less than 1 nM; on KAT2B, more than 30 nM.
For `CN1C[C@H](Nc2cnn(C)c(=O)c2Br)C[C@H](c2ccc(C(=O)N3CCC4(CC3)CCN(c3ccc(C(=O)NC5CCC(=O)NC5=O)nc3)CC4)cc2)C1` (stereo partly shown) [Compound 402] the same measures were less than 1 nM and less than 1 nM.
In the case of `CN1C[C@H](Nc2cnn(C)c(=O)c2Cl)C[C@H](c2ccc(C(=O)N3CCC4(CC3)CCN(c3ccc(C(=O)NC5CCC(=O)NC5=O)nc3)CC4)cc2)C1` (stereo partly shown) [Compound 403], the figures for the 50% degradation concentration (DC50) at KAT2A and on KAT2B were less than 1 nM and 1 to 30 nM, respectively.
For the compound `CN1C[C@H](Nc2cnn(C)c(=O)c2Br)C[C@H](c2ccc(C(=O)N3CCC4(CC3)CCN(c3cnc(C(=O)NC5CCC(=O)NC5=O)c(F)c3)CC4)cc2)C1` (stereo partly shown) [Compound 404], the DC50 is less than 1 nM at KAT2A and 1 to 30 nM at KAT2B.
For `CN1C[C@H](Nc2cnn(C)c(=O)c2Cl)C[C@H](c2ccc(C(=O)N3CCC4(CC3)CCN(c3ccc(C(=O)NC5CCC(=O)NC5=O)c(F)c3)CC4)cc2)C1` (stereo partly shown) [Compound 405] the same measures were less than 1 nM and 1 to 30 nM.
As for `Cc1ncsc1-c1ccc(CNC(=O)[C@@H]2C[C@@H](O)CN2C(=O)[C@@H](NC(=O)CN2CCN(C3CCN(C(=O)c4ccc([C@H]5C[C@@H](Nc6cnn(C)c(=O)c6Br)CN(C)C5)cc4)CC3)CC2)C(C)(C)C)cc1` [Compound 408], the DC50 on KAT2A and on KAT2B was more than 30 nM each time.
Turning to `Cc1ncsc1-c1ccc(CNC(=O)[C@@H]2C[C@@H](O)CN2C(=O)[C@@H](NC(=O)CN2CCC(N3CCN(C(=O)c4ccc([C@H]5C[C@@H](Nc6cnn(C)c(=O)c6Br)CN(C)C5)cc4)CC3)CC2)C(C)(C)C)cc1` [Compound 409], the DC50 on KAT2A is 1 to 30 nM; at KAT2B it was more than 30 nM.
For the compound `Cc1ncsc1-c1ccc(CNC(=O)[C@@H]2C[C@@H](O)CN2C(=O)[C@@H](NC(=O)CC2CCN(C(=O)c3ccc([C@H]4C[C@@H](Nc5cnn(C)c(=O)c5Br)CN(C)C4)cc3)CC2)C(C)(C)C)cc1` [Compound 411], the 50% degradation concentration (DC50) at KAT2A and on KAT2B was more than 30 nM throughout.
On to `Cc1ncsc1-c1ccc(CNC(=O)[C@@H]2C[C@@H](O)CN2C(=O)[C@@H](NC(=O)CCCCCCCCNC(=O)c2ccc([C@H]3C[C@@H](Nc4cnn(C)c(=O)c4Br)CN(C)C3)cc2)C(C)(C)C)cc1` [Compound 420], for which the DC50 on KAT2A and at KAT2B was more than 30 nM each time.
As for `Cc1ncsc1-c1ccc(CNC(=O)[C@@H]2C[C@@H](O)CN2C(=O)[C@@H](NC(=O)CCCCCNC(=O)c2ccc([C@H]3C[C@@H](Nc4cnn(C)c(=O)c4Br)CN(C)C3)cc2)C(C)(C)C)cc1` [Compound 421], the DC50 on KAT2A and at KAT2B was more than 30 nM throughout.
Take `Cc1ncsc1-c1ccc(CNC(=O)[C@@H]2C[C@@H](O)CN2C(=O)[C@@H](NC(=O)CCCCNC(=O)c2ccc([C@H]3C[C@@H](Nc4cnn(C)c(=O)c4Br)CN(C)C3)cc2)C(C)(C)C)cc1` [Compound 422]: the DC50 at KAT2A and on KAT2B was more than 30 nM each time.
For the compound `Cc1ncsc1-c1ccc(CNC(=O)[C@@H]2C[C@@H](O)CN2C(=O)[C@@H](NC(=O)COCCOCCNC(=O)c2ccc(C3CC(Nc4cnn(C)c(=O)c4Br)CN(C)C3)cc2)C(C)(C)C)cc1` (stereo partly shown) [Compound 423], the DC50 on KAT2A and on KAT2B was more than 30 nM throughout.
Regarding `Cn1ncc(N[C@@H]2C[C@H](c3ccc(C(=O)N4CCC5(CC4)CCN(c4ccc(C6CCC(=O)NC6=O)cc4)CC5)cc3)CN(C3CC3)C2)c(Br)c1=O` (stereo partly drawn) [Compound 424, 3-(4-(9-(4-((3R,5R)-5-((5-bromo-1-methyl-6-oxo-1,6-dihydropyridazin-4-yl)amino)-1-cyclopropylpiperidin-3-yl)benzoyl)-3,9-diazaspiro[5.5]undecan-3-yl)phenyl)piperidine-2,6-dione], the half-maximal degradation concentration (DC50) on KAT2A and on KAT2B was more than 30 nM in each case.
For the compound `Cn1ncc(N[C@@H]2C[C@H](c3ccc(C(=O)N4CCC5(CC4)CCN(c4ccc(C6CCC(=O)NC6=O)cc4)CC5)cc3)CN(CC3CC3)C2)c(Br)c1=O` (stereo partly drawn) [Compound 425, 3-[4-[3-[4-[(3R,5R)-5-[(5-bromo-1-methyl-6-oxo-pyridazin-4-yl)amino]-1-(cyclopropylmethyl)-3-piperidyl]benzoyl]-3,9-diazaspiro[5.5]undecan-9-yl]phenyl]piperidine-2,6-dione], the DC50 on KAT2A and at KAT2B was less than 1 nM throughout.

The values above are taken from patent US20260306640A1, “TECHNOLOGIES TARGETING CELL STATES” (Auron Therapeutics, Inc., priority 2023, published 2026).
